Data from ChEMBL document CHEMBL5357074, “Cannabidiol-Based Prodrugs: Synthesis and Bioevaluation” (ACS Med Chem Lett, 2024).
Converted amounts (≈) assume the structure as drawn. Values belong to the molecule of their own block, whether it stands above or below them. The source made the active and inactive calls. The rule behind the calls is not given here.

Experiments:
[1] = Prodrug conversion in human plasma assessed as drug release measured after 24 hrs by HPLC analysis; type: ADME, cell-free
[2] = Prodrug conversion in human plasma assessed as formation of O-(2-morpholinoacetyl)cannabidiol metabolite measured for 1 hr by HPLC analysis; type: ADME, cell-free
[3] = Thermodynamic equilibrium solubility in water at 1 to 1200 ug incubated for 4 hrs by absorbance based assay; type: physicochemical; conditions: dose 1-1200 µg, read-out: Therm_solubility
[4] = Thermodynamic equilibrium solubility SGF at 1 to 1200 ug incubated for 4 hrs by absorbance based assay; type: physicochemical; conditions: dose 1-1200 µg, read-out: Therm_solubility
[5] = Thermodynamic equilibrium solubility SIF at 1 to 1200 ug incubated for 4 hrs by absorbance based assay; type: physicochemical; conditions: dose 1-1200 µg, read-out: Therm_solubility
[6] = Volume of distribution in fasted Swiss mouse at 75 mg/kg, po equivalent to Cannabidiol measured for 24 hrs by LCMS/MS analysis; type: ADME, organism-based; conditions: in vivo
[7] = Volume of distribution at steady state in fasted Wistar rat at 75 mg/kg, po equivalent to Cannabidiol measured for 24 hrs by LCMS/MS analysis; type: ADME, organism-based; conditions: in vivo
Mus musculus = test: Antiepileptic activity in MES Swiss Albino mouse model assessed as decrease in convulsion duration at 75 mg/kg, po equivalent to Cannabidiol pretreated for 30 mins followed by induction of epileptic seizures measured for 1 to 8 hrs; type: functional, organism-based; conditions: time 1.5-8.5 hrs
[8] = Prodrug conversion in human plasma assessed as formation of O-{2-(4-cyclopropylpiperazin-1-yl)acetyl}cannabidiol metabolite measured for 1 to 8 hrs by HPLC analysis; type: ADME, cell-free; conditions: time 1-8 hrs
[9] = Stability in Balb/C mouse plasma assessed as compound degradation at 10 uM incubated for 2 hrs by LC-MS/MS analysis; type: ADME, cell-free; conditions: read-out: Drug degradation
[10] = Chemical stability in SIF at 2 mg/ml incubated for 2 hrs by HPLC analysis; type: physicochemical; conditions: read-out: Stability
[11] = Chemical stability in water at 2 mg/ml incubated for 2 hrs by HPLC analysis; type: physicochemical; conditions: read-out: Stability
[12] = Chemical stability in SGF at 2 mg/ml incubated for 2 hrs by HPLC analysis; type: physicochemical; conditions: read-out: Stability
[13] = Cmax in fasted Swiss mouse at 75 mg/kg, po measured for 24 hrs by LCMS/MS analysis; type: ADME, organism-based; parameters: dose 75 mg/kg, time 24 hrs, route po; conditions: in vivo
[14] = AUC (0 to t) in fasted Swiss mouse at 75 mg/kg, po measured for 24 hrs by LCMS/MS analysis; type: ADME, organism-based; parameters: time 24 hrs, dose 75 mg/kg, route po; conditions: in vivo
[15] = AUC (0 to infinity) in fasted Swiss mouse at 75 mg/kg, po measured for 24 hrs by LCMS/MS analysis; type: ADME, organism-based; parameters: dose 75 mg/kg, time 24 hrs, route po; conditions: in vivo
[16] = Volume of distribution in fasted Swiss mouse at 75 mg/kg, po measured for 24 hrs by LCMS/MS analysis; type: ADME, organism-based; conditions: in vivo
[17] = Clearance in fasted Swiss mouse at 75 mg/kg, po measured for 24 hrs by LCMS/MS analysis; type: ADME, organism-based; conditions: in vivo
[18] = Cmax in fasted Wistar rat at 75 mg/kg, po measured for 24 hrs by LCMS/MS analysis; type: ADME, organism-based; parameters: time 24 hrs, dose 75 mg/kg, route po; conditions: in vivo
[19] = AUC (0 to t) in fasted Wistar rat at 75 mg/kg, po measured for 24 hrs by LCMS/MS analysis; type: ADME, organism-based; parameters: dose 75 mg/kg, time 24 hrs, route po; conditions: in vivo
[20] = AUC (0 to infinity) in fasted Wistar rat at 75 mg/kg, po measured for 24 hrs by LCMS/MS analysis; type: ADME, organism-based; parameters: time 24 hrs, dose 75 mg/kg, route po; conditions: in vivo
[21] = Volume of distribution at steady state in fasted Wistar rat at 75 mg/kg, po measured for 24 hrs by LCMS/MS analysis; type: ADME, organism-based; conditions: in vivo
[22] = Clearance in fasted Wistar rat at 75 mg/kg, po measured for 24 hrs by LCMS/MS analysis; type: ADME, organism-based; conditions: in vivo
[23] = Oral bioavailability in Swiss mouse at 5 mg/kg measured for 24 hrs by LCMS/MS analysis; type: ADME, organism-based; conditions: in vivo
in vivo [24] = conditions: Swiss, mouse, po, 75 mg/kg
Description: Tmax in fasted Swiss mouse at 75 mg/kg, po measured for 24 hrs by LCMS/MS analysis

in vivo [25] = conditions: Wistar, rat, po, 75 mg/kg
Description: Tmax in fasted Wistar rat at 75 mg/kg, po measured for 24 hrs by LCMS/MS analysis

SMILES: C=C(C)[C@@H]1CCC(C)=C[C@H]1c1c(OC(=O)CN2CCOCC2)cc(CCCCC)cc1OC(=O)CN1CCOCC1
- Drug metabolism [1]: 52%
- Drug metabolism [2]: Metabolite_Detected
- solubility thermodynamic at 4 h [3]: 120 µg/mL (≈ 211 µM)
- solubility thermodynamic at 4 h [4]: 4000 µg/mL (≈ 7030 µM)
- solubility thermodynamic at 4 h [5]: 120 µg/mL (≈ 211 µM)
- Vd [6]: 224 L/kg
- Vdss [7]: 93 L/kg
- Activity (Mus musculus): Active

- solubility thermodynamic at 4 h [3]: 40 µg/mL (≈ 140 µM)
- solubility thermodynamic at 4 h [4]: 40 µg/mL (≈ 140 µM)
- solubility thermodynamic at 4 h [5]: 60 µg/mL (≈ 210 µM)
SMILES: O=C(/C=C/C=C/c1ccc2c(c1)OCO2)N1CCCCC1 [PIPERINE]

SMILES: C=C(C)[C@@H]1CCC(C)=C[C@H]1c1c(O)cc(CCCCC)cc1OC(=O)CN1CCOCC1
- Drug metabolism [1]: 84%
- solubility thermodynamic at 4 h [3]: 40 µg/mL (≈ 90.6 µM)
- solubility thermodynamic at 4 h [4]: 400 µg/mL (≈ 906 µM)
- solubility thermodynamic at 4 h [5]: 80 µg/mL (≈ 181 µM)
- Vd [6]: 108 L/kg
- Vdss [7]: 32 L/kg

SMILES: C=C(C)[C@@H]1CCC(C)=C[C@H]1c1c(O)cc(CCCCC)cc1OC(=O)CN1CCC(c2ccccc2)CC1
- Drug metabolism [1]: 4.6%

- Drug metabolism [1]: 27%
- Drug metabolism [8]: Metabolite_Detected
SMILES: C=C(C)[C@@H]1CCC(C)=C[C@H]1c1c(OC(=O)CN2CCN(C3CC3)CC2)cc(CCCCC)cc1OC(=O)CN1CCN(C2CC2)CC1

- metabolised at 2 h, 10 µM [9]: > 80%
SMILES: CCOC(=O)[C@H](CCc1ccccc1)N[C@@H](C)C(=O)N1CCC[C@H]1C(=O)O [ENALAPRIL]

SMILES: C=C(C)[C@@H]1CCC(C)=C[C@H]1c1c(O)cc(CCCCC)cc1OC(=O)CN1CCC(O)CC1
- Drug metabolism [1]: 73%

SMILES: C=C(C)[C@@H]1CCC(C)=C[C@H]1c1c(O)cc(CCCCC)cc1OC(=O)CN1CCN(c2ccccc2)CC1
- Drug metabolism [1]: 9.2%

SMILES: C=C(C)[C@@H]1CCC(C)=C[C@H]1c1c(O)cc(CCCCC)cc1OC(=O)CN1CCN(C)CC1
- Drug metabolism [1]: 59%

- remaining at 2 h, 2 mg/ml [10]: ≥ 74%
- remaining at 2 h, 2 mg/ml [11]: ≥ 74%
SMILES: O=C(O)CN1CCOCC1

SMILES: C=C(C)[C@@H]1CCC(C)=C[C@H]1c1c(O)cc(CCCCC)cc1OC(=O)CN1CCN(C(C)C)CC1
- Drug metabolism [1]: 78%

SMILES: C=C(C)[C@@H]1CCC(C)=C[C@H]1c1c(O)cc(CCCCC)cc1OC(=O)CN1CCN(C2CC2)CC1
- Drug metabolism [1]: 56%

SMILES: C=C(C)[C@@H]1CCC(C)=C[C@H]1c1c(O)cc(CCCCC)cc1OC(=O)CN1CCCC1
- Drug metabolism [1]: 74%

SMILES: C=C(C)[C@@H]1CCC(C)=C[C@H]1c1c(O)cc(CCCCC)cc1O [CANNABIDIOL]
- solubility thermodynamic at 4 h [3]: < 5 µg/mL
- solubility thermodynamic at 4 h [4]: < 5 µg/mL
- solubility thermodynamic at 4 h [5]: < 5 µg/mL
- remaining at 2 h, 2 mg/ml [12]: ≥ 74%
- remaining at 2 h, 2 mg/ml [10]: ≥ 74%
- remaining at 2 h, 2 mg/ml [11]: ≥ 74%
- Cmax [13]: 669 ng/mL
- AUC(0-t) at 24 h [14]: 4660 ng·h/mL
- AUC(0-inf) [15]: 4870 ng·h/mL
- Vd [16]: 137 L/kg
- CL/F [17]: 250 mL/min/kg
- Cmax [18]: 728 ng/mL
- AUC(0-t) at 24 h [19]: 9460 ng·h/mL
- AUC(0-inf) [20]: 10200 ng·h/mL
- Vdss [21]: 77 L/kg
- CL/F [22]: 123 mL/min/kg
- bioavailability [23]: 24%
- Tmax at 24 h (in vivo [24]): 2 h
- Tmax at 24 h (in vivo [25]): 8 h
